The source of these data is PMC12377734 (Proceedings of the National Academy of Sciences of the …, 2025).

Common to all, as to type: cell-based
Assay [1] deals with T1, hPIEZO1 (Homo sapiens, UniProt Q92508). In words: single-cell Fura-2 Ca2+ imaging. The following applies: activator; HEK-P1-KO cells, 1 mM Jedi1, pH 7.2, 1.3 mM Ca2+.
For assay [2], the target named is T1, hPIEZO1. Kind of assay: FLIPR GCaMP6s Ca2+ assay.
The target in assay [3] is mPIEZO1 (Mus musculus, UniProt E2JF22). Kind of assay: FLIPR GCaMP6s Ca2+ assay.
Sequence of mPIEZO1 (Mus musculus, UniProt E2JF22) (E2JF22 whole entry): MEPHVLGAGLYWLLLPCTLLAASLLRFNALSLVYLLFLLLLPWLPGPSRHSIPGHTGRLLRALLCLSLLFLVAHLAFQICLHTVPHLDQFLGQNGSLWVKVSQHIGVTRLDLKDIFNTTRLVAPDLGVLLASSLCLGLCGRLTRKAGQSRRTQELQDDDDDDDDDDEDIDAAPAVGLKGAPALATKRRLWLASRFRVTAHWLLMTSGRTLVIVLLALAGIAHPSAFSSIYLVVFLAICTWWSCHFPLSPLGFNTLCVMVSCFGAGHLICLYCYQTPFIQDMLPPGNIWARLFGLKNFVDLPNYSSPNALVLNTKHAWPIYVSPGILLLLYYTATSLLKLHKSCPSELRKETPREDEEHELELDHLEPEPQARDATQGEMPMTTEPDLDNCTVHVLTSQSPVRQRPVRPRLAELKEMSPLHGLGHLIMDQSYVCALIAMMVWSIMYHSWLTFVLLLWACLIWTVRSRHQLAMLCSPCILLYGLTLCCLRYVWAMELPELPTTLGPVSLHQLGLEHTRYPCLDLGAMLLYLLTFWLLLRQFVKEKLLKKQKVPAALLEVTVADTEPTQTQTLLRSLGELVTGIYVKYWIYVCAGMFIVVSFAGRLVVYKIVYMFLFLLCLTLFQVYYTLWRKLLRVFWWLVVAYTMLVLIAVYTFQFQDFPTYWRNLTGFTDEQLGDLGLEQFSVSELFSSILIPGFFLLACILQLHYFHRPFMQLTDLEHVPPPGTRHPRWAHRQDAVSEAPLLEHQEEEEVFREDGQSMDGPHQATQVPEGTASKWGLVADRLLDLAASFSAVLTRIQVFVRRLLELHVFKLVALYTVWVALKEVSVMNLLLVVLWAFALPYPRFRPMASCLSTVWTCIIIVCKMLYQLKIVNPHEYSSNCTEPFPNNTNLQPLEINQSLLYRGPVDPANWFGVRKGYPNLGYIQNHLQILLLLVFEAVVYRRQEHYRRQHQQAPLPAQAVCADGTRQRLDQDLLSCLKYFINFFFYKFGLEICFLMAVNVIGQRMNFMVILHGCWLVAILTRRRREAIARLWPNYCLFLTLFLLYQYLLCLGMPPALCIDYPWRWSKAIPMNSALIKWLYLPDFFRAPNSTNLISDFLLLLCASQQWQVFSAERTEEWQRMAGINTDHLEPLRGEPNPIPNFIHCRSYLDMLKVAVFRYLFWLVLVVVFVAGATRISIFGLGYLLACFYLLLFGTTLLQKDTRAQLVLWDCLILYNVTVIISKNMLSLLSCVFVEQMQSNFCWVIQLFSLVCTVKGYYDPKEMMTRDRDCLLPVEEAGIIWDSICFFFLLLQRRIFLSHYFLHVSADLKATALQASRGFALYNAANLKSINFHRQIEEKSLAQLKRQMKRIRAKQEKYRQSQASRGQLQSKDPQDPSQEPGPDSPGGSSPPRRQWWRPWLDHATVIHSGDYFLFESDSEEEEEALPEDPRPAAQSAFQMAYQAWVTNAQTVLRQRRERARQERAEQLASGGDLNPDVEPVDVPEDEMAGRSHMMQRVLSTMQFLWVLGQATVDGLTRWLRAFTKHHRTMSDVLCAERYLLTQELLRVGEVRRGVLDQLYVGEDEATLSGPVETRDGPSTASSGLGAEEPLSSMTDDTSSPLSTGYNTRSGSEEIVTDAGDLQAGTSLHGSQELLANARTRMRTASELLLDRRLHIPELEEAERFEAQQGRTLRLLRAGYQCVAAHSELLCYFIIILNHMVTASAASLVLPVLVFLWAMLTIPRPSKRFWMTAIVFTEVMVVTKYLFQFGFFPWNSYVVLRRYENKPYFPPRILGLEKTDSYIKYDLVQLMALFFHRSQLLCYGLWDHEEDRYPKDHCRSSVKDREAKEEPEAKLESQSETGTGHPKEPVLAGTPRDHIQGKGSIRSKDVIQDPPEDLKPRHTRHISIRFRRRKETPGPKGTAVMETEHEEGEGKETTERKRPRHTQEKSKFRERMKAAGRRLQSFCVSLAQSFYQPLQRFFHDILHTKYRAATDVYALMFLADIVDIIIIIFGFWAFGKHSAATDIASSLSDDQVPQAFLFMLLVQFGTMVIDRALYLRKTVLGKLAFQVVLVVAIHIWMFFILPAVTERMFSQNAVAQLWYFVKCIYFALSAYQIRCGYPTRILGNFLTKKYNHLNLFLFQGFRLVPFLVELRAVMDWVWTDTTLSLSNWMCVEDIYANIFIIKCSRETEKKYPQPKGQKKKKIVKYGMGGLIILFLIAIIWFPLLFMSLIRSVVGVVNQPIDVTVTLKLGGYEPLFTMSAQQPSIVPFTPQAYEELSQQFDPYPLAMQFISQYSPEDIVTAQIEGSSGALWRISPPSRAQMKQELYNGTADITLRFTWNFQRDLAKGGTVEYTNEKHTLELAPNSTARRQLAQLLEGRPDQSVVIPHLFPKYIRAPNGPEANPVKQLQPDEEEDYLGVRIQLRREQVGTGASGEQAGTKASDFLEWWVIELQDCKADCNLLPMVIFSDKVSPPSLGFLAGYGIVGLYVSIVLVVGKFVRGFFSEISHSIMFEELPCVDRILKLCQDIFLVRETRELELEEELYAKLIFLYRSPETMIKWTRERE
For assay [4], the target named is mPIEZO1 (Mus musculus, UniProt E2JF22, L329P). Kind of assay: FLIPR GCaMP6s Ca2+ assay.
Sequence of mPIEZO1 (Mus musculus, UniProt E2JF22, L329P) (E2JF22 whole entry L329P): as the sequence (E2JF22 whole entry) above, with L329P counted along it
Assay [5] deals with hPIEZO1 (Homo sapiens, UniProt Q92508, L322P). In words: FLIPR GCaMP6s Ca2+ assay.
Sequence of hPIEZO1 (Homo sapiens, UniProt Q92508, L322P) (Q92508 whole entry L322P): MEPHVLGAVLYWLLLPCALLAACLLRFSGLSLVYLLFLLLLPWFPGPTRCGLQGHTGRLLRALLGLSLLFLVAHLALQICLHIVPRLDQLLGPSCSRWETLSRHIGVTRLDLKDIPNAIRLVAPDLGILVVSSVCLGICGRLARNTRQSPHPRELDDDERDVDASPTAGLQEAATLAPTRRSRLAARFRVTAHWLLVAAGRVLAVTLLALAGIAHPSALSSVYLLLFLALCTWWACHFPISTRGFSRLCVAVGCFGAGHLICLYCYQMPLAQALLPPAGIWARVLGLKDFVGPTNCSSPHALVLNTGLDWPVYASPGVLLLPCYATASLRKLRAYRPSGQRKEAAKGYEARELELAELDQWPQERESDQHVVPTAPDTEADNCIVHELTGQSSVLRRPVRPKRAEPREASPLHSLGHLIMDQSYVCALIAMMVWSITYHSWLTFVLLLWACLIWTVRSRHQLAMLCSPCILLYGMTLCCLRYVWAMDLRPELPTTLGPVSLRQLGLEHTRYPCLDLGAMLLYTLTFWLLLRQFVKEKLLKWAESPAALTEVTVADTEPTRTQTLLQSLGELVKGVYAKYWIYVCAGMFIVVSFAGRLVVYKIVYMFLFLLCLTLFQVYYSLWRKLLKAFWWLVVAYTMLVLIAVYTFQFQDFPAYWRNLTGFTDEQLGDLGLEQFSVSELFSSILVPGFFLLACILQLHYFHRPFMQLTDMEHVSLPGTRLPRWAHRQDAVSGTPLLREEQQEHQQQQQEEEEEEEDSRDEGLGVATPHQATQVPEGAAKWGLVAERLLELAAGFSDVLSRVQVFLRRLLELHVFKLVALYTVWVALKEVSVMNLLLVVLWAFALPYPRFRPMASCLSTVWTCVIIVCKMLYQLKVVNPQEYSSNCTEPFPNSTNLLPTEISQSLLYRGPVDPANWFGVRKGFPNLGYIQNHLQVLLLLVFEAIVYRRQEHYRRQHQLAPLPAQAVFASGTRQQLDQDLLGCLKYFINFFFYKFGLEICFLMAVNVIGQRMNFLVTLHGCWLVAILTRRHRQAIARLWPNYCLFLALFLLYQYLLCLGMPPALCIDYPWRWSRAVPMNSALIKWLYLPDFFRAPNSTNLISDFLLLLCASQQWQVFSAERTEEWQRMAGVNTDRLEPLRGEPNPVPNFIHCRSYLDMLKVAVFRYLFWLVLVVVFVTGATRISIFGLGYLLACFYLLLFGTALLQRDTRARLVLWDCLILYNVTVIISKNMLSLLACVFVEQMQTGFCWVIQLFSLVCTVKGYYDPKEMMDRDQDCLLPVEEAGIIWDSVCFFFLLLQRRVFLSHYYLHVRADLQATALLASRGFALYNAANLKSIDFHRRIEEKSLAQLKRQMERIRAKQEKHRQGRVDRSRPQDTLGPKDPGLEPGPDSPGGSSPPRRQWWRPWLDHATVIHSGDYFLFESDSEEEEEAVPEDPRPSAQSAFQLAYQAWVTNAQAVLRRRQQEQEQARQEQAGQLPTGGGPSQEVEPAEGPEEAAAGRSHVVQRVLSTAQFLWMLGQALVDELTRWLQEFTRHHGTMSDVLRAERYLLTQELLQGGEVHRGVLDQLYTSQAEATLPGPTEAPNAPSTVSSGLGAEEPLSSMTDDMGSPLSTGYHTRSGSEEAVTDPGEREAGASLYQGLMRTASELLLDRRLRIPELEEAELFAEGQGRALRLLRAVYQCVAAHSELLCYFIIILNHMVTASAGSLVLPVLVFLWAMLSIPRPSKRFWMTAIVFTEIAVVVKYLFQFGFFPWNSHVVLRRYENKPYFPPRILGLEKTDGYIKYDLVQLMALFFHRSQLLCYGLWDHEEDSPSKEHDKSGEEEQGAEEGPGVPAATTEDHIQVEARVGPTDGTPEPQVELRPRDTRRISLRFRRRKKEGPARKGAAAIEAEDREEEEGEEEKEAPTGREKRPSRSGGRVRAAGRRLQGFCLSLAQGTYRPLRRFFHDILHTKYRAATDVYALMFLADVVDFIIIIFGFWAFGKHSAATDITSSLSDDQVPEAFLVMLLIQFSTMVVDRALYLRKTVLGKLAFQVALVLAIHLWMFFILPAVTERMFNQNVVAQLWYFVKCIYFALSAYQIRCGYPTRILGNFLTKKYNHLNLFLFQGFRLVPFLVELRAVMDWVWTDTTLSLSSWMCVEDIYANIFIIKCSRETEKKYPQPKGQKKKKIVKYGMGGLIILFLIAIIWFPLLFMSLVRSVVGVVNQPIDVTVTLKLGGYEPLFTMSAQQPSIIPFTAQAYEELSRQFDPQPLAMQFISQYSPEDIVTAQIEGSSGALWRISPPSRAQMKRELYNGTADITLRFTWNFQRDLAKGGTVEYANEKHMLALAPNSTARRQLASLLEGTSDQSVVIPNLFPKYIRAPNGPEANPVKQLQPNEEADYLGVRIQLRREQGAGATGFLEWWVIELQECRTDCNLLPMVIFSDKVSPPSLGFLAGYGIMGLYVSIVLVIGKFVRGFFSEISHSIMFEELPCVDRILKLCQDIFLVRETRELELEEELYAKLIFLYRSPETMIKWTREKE

As usually defined, the EC50 is the concentration needed to bring the measured effect to its halfway point. Low values mean a more potent agent, high ones a less potent agent.

T1 sequence (Q92508 whole entry): as the sequence (Q92508 whole entry L322P) above, with P322L counted along it

For the molecule `Cc1oc(-c2ccccc2)cc1C(=O)O` [Jedi1], in assay [1], the “Fura-2 ratio change at 1 mM” value is reported as “comparable Fura-2 signal increase in response to the application of either Jedi1 or Yoda1”.

Turning to `Clc1cccc(Cl)c1CSc1nnc(-c2cnccn2)s1` [Yoda1], the EC50 in assay [2] is 9.1 µM; in assay [3], 4.3 µM; in assay [4], 1.3 µM; in assay [5] it was 3.1 µM.
